From publication PMC8276771 (Bioorganic & medicinal chemistry letters, 2021)
“Also recorded” adds a separate entry of the source.

What was measured:
human P2Y6R = human P2Y6R (Homo sapiens, UniProt Q15077); assay: Calcium mobilization; details: for P2Y6R activation (in words) / fold reduction of P2Y6R potency relative to UDP 1: calcium mobilization; for P2Y6R activation (in words): hP2Y6R
hP2Y6R = details: read-out: hP2Y6R EC50; cited from earlier work
P2Y14R = details: cited from earlier work
hP2Y14R = biological target: T1, hP2Y14R (Homo sapiens, UniProt Q15391); assay: Fluorescent antagonist binding assay by flow cytometry of hP2Y14R-CHO cells
T1 sequence (Q15391 1-338): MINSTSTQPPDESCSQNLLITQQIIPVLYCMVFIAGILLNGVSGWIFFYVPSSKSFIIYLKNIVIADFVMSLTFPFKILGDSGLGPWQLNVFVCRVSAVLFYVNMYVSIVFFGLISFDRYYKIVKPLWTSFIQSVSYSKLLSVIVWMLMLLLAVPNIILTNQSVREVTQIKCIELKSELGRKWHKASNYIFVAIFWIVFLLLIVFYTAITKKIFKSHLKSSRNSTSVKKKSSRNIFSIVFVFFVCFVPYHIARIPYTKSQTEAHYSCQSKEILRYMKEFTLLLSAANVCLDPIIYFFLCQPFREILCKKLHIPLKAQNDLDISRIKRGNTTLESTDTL

rat CD73 = details: rat CD73, 5 μM AMP substrate, ref Junker et al. [33], cited from earlier work
hP2YR = details: cited from earlier work
[1] = system: 46 receptors, channels and transporters; assay: PDSP off-target panel; format: binding

Chain of human P2Y6R (Q15077 whole entry): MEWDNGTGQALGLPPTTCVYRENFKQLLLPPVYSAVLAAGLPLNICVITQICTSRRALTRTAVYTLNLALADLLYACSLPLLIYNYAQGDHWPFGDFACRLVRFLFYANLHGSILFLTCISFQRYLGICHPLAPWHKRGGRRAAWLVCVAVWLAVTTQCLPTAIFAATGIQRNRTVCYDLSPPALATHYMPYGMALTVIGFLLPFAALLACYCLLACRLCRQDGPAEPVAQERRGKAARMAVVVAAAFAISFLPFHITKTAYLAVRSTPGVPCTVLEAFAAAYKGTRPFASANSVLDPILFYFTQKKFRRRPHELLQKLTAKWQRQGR

In the case of `CCN(CC)CC.CCN(CC)CC.CCn1c(=O)n([C@@H]2O[C@H](COP(=O)(O)CP(=O)(O)O)[C@@H](O)[C@H]2O)cc/c1=N/OCc1ccccc1` [Compound 38], the “P2Y6R activation (in words)” value (human P2Y6R) is reported as “completely prevent P2Y6R activation; also recorded: prevented P2Y6R activation”.

In the case of `O=c1ccn([C@@H]2O[C@H](COP(=O)(O)CP(=O)(O)O)[C@@H](O)[C@@H]2O)c(=O)[nH]1` [Compound 39], the “P2Y6R activation (in words)” value (human P2Y6R) is reported as “completely prevent P2Y6R activation; also recorded: prevented P2Y6R activation”.

For `CCN(CC)CC.CCN(CC)CC.O=c1[nH]/c(=N/OCc2ccccc2)ccn1[C@@H]1O[C@H](COP(=O)(O)OP(=O)(O)O)[C@@H](O)[C@H]1O` [Compound 13], the “fold reduction of P2Y6R potency relative to UDP 1” value (human P2Y6R) was 19 fold.

In the case of `CCN(CC)CC.CCN(CC)CC.CO/N=c1/ccn([C@@H]2O[C@H](COP(=O)(O)OP(=O)(O)O)[C@@H](O)[C@H]2O)c(=O)[nH]1` [Compound 11], the “fold reduction of P2Y6R potency relative to UDP 1” value (human P2Y6R) is reported as 12 fold.

With `CCN(CC)CC.CCN(CC)CC.Cn1c(=O)n([C@@H]2O[C@H](COP(=O)(O)CP(=O)(O)O)[C@@H](O)[C@H]2O)cc/c1=N/OCc1ccccc1` [Compound 37] the “P2Y6R activation (in words)” value (human P2Y6R) was “completely prevent P2Y6R activation; also recorded: prevented P2Y6R activation”.

In the case of `O=c1ccn([C@@H]2O[C@H](COP(=O)(O)OP(=O)(O)OP(=O)(O)O)[C@@H](O)[C@H]2O)c(=O)[nH]1` [UTP], the EC50 (hP2Y6R) is given as over 10000 nM and the “P2Y14R activity (in words)” value (P2Y14R) is given as “inactive”.

In the case of `CCN(CC)CC.CCN(CC)CC.O=c1[nH]c(=O)n([C@@H]2O[C@H](COP(=O)(O)CP(=O)(O)O)[C@@H](O)[C@H]2O)cc1F` [Compound 16, 5-Fluoro-5′-αβ-methylene-UDP], the “selectivity between P2Y6R and P2Y14R (in words)” value (hP2Y14R) is given as “nonselective” and the IC50 (rat CD73; read-out: CD73 IC50) is given as over 1000 nM.

In the case of `O=c1cnn([C@@H]2O[C@H](COP(=O)(O)CP(=O)(O)O)[C@@H](O)[C@H]2O)c(=O)[nH]1` [Compound 40], the “P2Y6R activation (in words)” value (human P2Y6R) is reported as “completely prevent P2Y6R activation; also recorded: prevented P2Y6R activation”.

For `CCN(CC)CC.CCN(CC)CC.O=C(/N=c1/ccn([C@@H]2O[C@H](COP(=O)(O)CP(=O)(O)O)[C@@H](O)[C@H]2O)c(=O)[nH]1)c1ccccc1` [Compound 30], the “selectivity between P2Y6R and P2Y14R (in words)” value (hP2Y14R) was “nonselective”.

For `O=c1[nH]/c(=N\OCc2ccc(S(F)(F)(F)(F)F)cc2)ccn1[C@@H]1O[C@H](COP(=O)(O)CP(=O)(O)O)[C@@H](O)[C@H]1O` [Compound 27], the EC50 (human P2Y6R) was 1690 nM.

In the case of `O=c1ccn([C@@H]2O[C@H](COP(=O)(O)O)[C@@H](O)[C@H]2O)c(=O)[nH]1` [UMP], the “activation of hP2YRs (in words)” value (hP2YR) is given as “does not activate any hP2YR”.

For `O=c1ccn([C@@H]2O[C@H](COP(=O)(O)CP(=O)(O)O)[C@@H](O)[C@H]2O)c(=S)[nH]1` [Compound 14b, 2-thiouridine-5′-O-(α,β-methylene)diphosphate, reference compound], the “off-target activities (significant = >50% binding inhibition at 10 μM)” value [1] is listed as “no significant” and the “CD73 % inhibition at 1 μM” value (rat CD73; 1 μM) is listed as 7%.
